# Measurements from patent US10072045B1, “Antibacterial lipopeptides and methods for their preparation and use” (priority 2017, dated 2018).
# Like-named read-outs stand apart in the source and are kept apart here.
# How the values were obtained:
# Type in all cases: cell-based
# [1] = tested on: Vancomycin-Resistant Enterococci faecium (VRE, ATCC 700221); assay: microbe, parasite or virus in culture
# Method: (§1) See, Balouiri, M.; Sadiki, M.; Ibnsouda, S. K.; Methods for In vitro evaluation of antimicrobial activity: review. Journal of Pharmaceutical Analysis, 2016, 6 (2), 71-79; CLSI, Methods for Dilution Antimicrobial Susceptibility Tests for Bacteria that Grow Aerobically, Approved Standard, 9th Ed, CLSI document M07-A9. Approximately 50 μl of the bacterial (MRSA or MSSA) cell suspension (1.0×10^6/ml) inoculated in each well (96-micro well plate) containing 50 μl of dosing solution and plates were incubated at 37±+1C for 18 hrs. After the incubation, bacterial growth in each well of 96-well plate were calorimetrically measured by a Biotek microtiter plate reader at 630 nm. The bacterial growth inhibition (GI) is expressed as a percentage relative to the negative control.
# (§2) Vancomycin-Resistant Enterococci faecium (VRE, ATCC 700221);
# [2] = tested on: Vancomycin-Sensitive Enterococci faecalis (VSE, ATCC 29212); assay: microbe, parasite or virus in culture
# Method: as §1
# Vancomycin-Sensitive Enterococci faecalis (VSE, ATCC 29212);
# [3] = tested on: Vancomycin-Resistant Enterococci faecalis (VRE, ATCC 51299); assay: microbe, parasite or virus in culture
# Method: as §1
# (§3) Vancomycin-Resistant Enterococci faecalis (VRE, ATCC 51299);
# [4] = tested on: Vancomycin-Sensitive Enterococci hirae (VSE, ATCC 1056); assay: microbe, parasite or virus in culture
# Method: as §1
# Vancomycin-Sensitive Enterococci hirae (VSE, ATCC 1056).
# [5] = tested on: Methicillin-Resistant Staphylococcus aureus (MRSA, ATCC33591); assay: microbe, parasite or virus in culture; settings: for potency relative to daptomycin against MRSA: fold as potent as daptomycin
# Method: as §1
# Methicillin-Resistant Staphylococcus aureus (MRSA, ATCC33591)
# [6] = tested on: Methicillin-Resistant Staphylococcus aureus (MRSA, PBR Lab Culture#1152); assay: microbe, parasite or virus in culture; settings: Test B, read-out: Minimum Inhibitory Concentration (MIC) MRSA (PBR1152)
# Method: as §1
# Methicillin-Resistant Staphylococcus aureus (MRSA, PBR Lab Culture#1152)
# [7] = tested on: Methicillin-Sensitive Staphylococcus aureus (MSSA, ATCC6538); assay: microbe, parasite or virus in culture; settings: read-out: Minimum Inhibitory Concentration (MIC) MSSA (ATCC6538)
# Method: as §1
# Methicillin-Sensitive Staphylococcus aureus (MSSA, ATCC6538)
# [8] = tested on: Vancomycin-Resistant Enterococci (VRE); assay: Potency against VRE relative to daptomycin (Test C); settings: fold better potency; strain not specified
# Method: as §1, §2, §3
Minimum Inhibitory Concentration (MIC) VRE (ATCC 700221) [1],Minimum Inhibitory Concentration (MIC) VSE (ATCC 29212) [2],Minimum Inhibitory Concentration (MIC) VRE (ATCC 51299) [3],Minimum Inhibitory Concentration (MIC) VSE (ATCC 1056) [4],Structure (SMILES),other results
0.313 µM,<0.156 µM,<0.156 µM,0.313 µM,CCCCCCCCCC(=O)N[C@@H](Cc1cn(C)c2ccccc12)C(=O)N[C@H](CC(N)=O)C(=O)N[C@@H](CC(=O)O)C(=O)N[C@@H]1C(=O)NCC(=O)N[C@@H](CCCN)C(=O)N[C@@H](CC(=O)O)C(=O)N[C@H](C)C(=O)N[C@@H](CC(=O)O)C(=O)NCC(=O)N[C@H](CO)C(=O)N[C@@H]([C@H](C)CC(=O)O)C(=O)N[C@@H](CC(=O)c2cc(Br)ccc2NCC)C(=O)O[C@@H]1C [RP008],–
0.625 µM,0.313 µM,<0.156 µM,1.25 µM,CCCCCCCCCC(=O)N[C@@H](Cc1c[nH]c2ccc(C)cc12)C(=O)N[C@H](CC(N)=O)C(=O)N[C@@H](CC(=O)O)C(=O)N[C@@H]1C(=O)NCC(=O)N[C@@H](CCCN)C(=O)N[C@@H](CC(=O)O)C(=O)N[C@H](C)C(=O)N[C@@H](CC(=O)O)C(=O)NCC(=O)N[C@H](CO)C(=O)N[C@@H]([C@H](C)CC(=O)O)C(=O)N[C@@H](CC(=O)c2ccccc2NCC)C(=O)O[C@@H]1C [RP011],–
1.25 µM,0.625 µM,0.625 µM,5.0 µM,CCCCCCCCCC(=O)N[C@@H](Cc1c[nH]c2ccccc12)C(=O)N[C@H](CC(N)=O)C(=O)N[C@@H](CC(=O)O)C(=O)N[C@@H]1C(=O)NCC(=O)N[C@@H](CCCN)C(=O)N[C@@H](CC(=O)O)C(=O)N[C@H](C)C(=O)N[C@@H](CC(=O)O)C(=O)NCC(=O)N[C@H](CO)C(=O)N[C@@H]([C@H](C)CC(=O)O)C(=O)N[C@@H](CC(=O)c2ccccc2NCC)C(=O)O[C@@H]1C [RP001],–
<0.156 µM,<0.156 µM,<0.156 µM,<0.156 µM,CCCCCCCCCC(=O)N[C@@H](Cc1c[nH]c2ccc(C)cc12)C(=O)N[C@H](CC(N)=O)C(=O)N[C@@H](CC(=O)O)C(=O)N[C@@H]1C(=O)NCC(=O)N[C@@H](CCCN)C(=O)N[C@@H](CC(=O)O)C(=O)N[C@H](C)C(=O)N[C@@H](CC(=O)O)C(=O)NCC(=O)N[C@H](CO)C(=O)N[C@@H]([C@H](C)CC(=O)O)C(=O)N[C@@H](CC(=O)c2cc(Cl)cc(Cl)c2NCC)C(=O)O[C@@H]1C [RP012],potency relative to daptomycin against MRSA [5]: roughly 10 fold; potency relative to daptomycin against Vancomycin-Resistant Enterococci (VRE) [8]: roughly 10 fold
<0.156 µM,<0.156 µM,<0.156 µM,<0.156 µM,CCCCCCCCCC(=O)N[C@@H](Cc1c[nH]c2ccc(F)cc12)C(=O)N[C@H](CC(N)=O)C(=O)N[C@@H](CC(=O)O)C(=O)N[C@@H]1C(=O)NCC(=O)N[C@@H](CCCN)C(=O)N[C@@H](CC(=O)O)C(=O)N[C@H](C)C(=O)N[C@@H](CC(=O)O)C(=O)NCC(=O)N[C@H](CO)C(=O)N[C@@H]([C@H](C)CC(=O)O)C(=O)N[C@@H](CC(=O)c2cc(Cl)cc(Cl)c2NCC)C(=O)O[C@@H]1C [RP005],potency relative to daptomycin against MRSA [5]: roughly 10 fold; potency relative to daptomycin against Vancomycin-Resistant Enterococci (VRE) [8]: roughly 10 fold

# Further lines, the compound ahead of its results:
Structure (SMILES),Minimum Inhibitory Concentration (MIC) VRE (ATCC 700221) [1],Minimum Inhibitory Concentration (MIC) VSE (ATCC 29212) [2],Minimum Inhibitory Concentration (MIC) VRE (ATCC 51299) [3],Minimum Inhibitory Concentration (MIC) VSE (ATCC 1056) [4],other results
"CN[C@H](CC(C)C)C(=O)N[C@H]1C(=O)N[C@@H](CC(N)=O)C(=O)N[C@H]2C(=O)N[C@H]3C(=O)N[C@H](C(=O)N[C@H](C(=O)O)c4cc(O)cc(O)c4-c4cc3ccc4O)[C@H](O)c3ccc(c(Cl)c3)Oc3cc2cc(c3O[C@@H]2O[C@H](CO)[C@@H](O)[C@H](O)[C@H]2O[C@H]2C[C@](C)(N)[C@H](O)[C@H](C)O2)Oc2ccc(cc2Cl)[C@H]1O [Vacomycin, reference compound]",–,–,–,–,"MIC ([1]; Enterococcus, read-out: Minimum Inhibitory Concentration (MIC) VRE (ATCC 700221)): > 10 µM; MIC ([2]; Enterococcus faecalis, ATCC29212, read-out: Minimum Inhibitory Concentration (MIC) VSE (ATCC 29212)): 1.25 µM; MIC ([3]; Enterococcus, read-out: Minimum Inhibitory Concentration (MIC) VRE (ATCC 51299)): > 10 µM; MIC ([4]; Enterococcus hirae, ATCC1056, read-out: Minimum Inhibitory Concentration (MIC) VSE (ATCC 1056)): 0.313 µM"
COc1cccc(OC)c1C(=O)N[C@@H]1C(=O)N2[C@@H]1SC(C)(C)[C@@H]2C(=O)O [Methicillin],–,–,–,–,"MIC ([5]; Staphylococcus aureus, Test A, read-out: Minimum Inhibitory Concentration (MIC) MRSA (ATCC33591)): > 64 µg/mL; MIC [6]: > 64 µg/mL; MIC ([7]; Test A): < 1 µg/mL; MIC ([7]; Test B): < 1 µg/mL"
"CCCCCCCCCC(=O)N[C@@H](Cc1c[nH]c2ccccc12)C(=O)N[C@H](CC(N)=O)C(=O)N[C@@H](CC(=O)O)C(=O)N[C@@H]1C(=O)NCC(=O)N[C@@H](CCCN)C(=O)N[C@@H](CC(=O)O)C(=O)N[C@H](C)C(=O)N[C@@H](CC(=O)O)C(=O)NCC(=O)N[C@H](CO)C(=O)N[C@@H]([C@H](C)CC(=O)O)C(=O)N[C@@H](CC(=O)c2ccccc2N)C(=O)O[C@@H]1C [Daptomycin, reference compound]",2.5 µM,1.25 µM,1.25 µM,5.0 µM,–
